Columns and labels:
[1] = Partition coefficient, octanol/water; format: physicochemical
Protocol: The partition coefficient of NRL-1049 adipate was determined according to the following procedure. In a 500 mL separation funnel, 120 mL water and 120 mL octanol were combined, mixed well, and allowed to separate into two layers. Approximately 100 mL of the organic phase layer and approximately 100 mL from the aqueous phase layer were removed and utilized in the following steps. Three 100 mL separation funnels were labeled as Sample 1, Sample 2, and Sample 3. […] The P values were as follows: Sample 1=0.0053, Sample 2=0.0049, Sample 3=0.0050.

[2] = pH-dependent stability in buffer solutions; format: physicochemical
Protocol: The solutions were stored in vials at 25° C., 40° C., and 60° C. […] Purity was measured by HPLC.

## C[C@@H](N)C1CCN(S(=O)(=O)c2cccc3cnccc23)CC1.O=C(O)CCCCC(=O)O [NRL-1049 Adipate]
[1]; Sample 1: 40 mL aqueous phase, 10 mL organic phase (octanol/water)
  Partition coefficient P (organic phase/aqueous phase): 0.0053
[1]; Sample 2: 25 mL aqueous phase, 25 mL organic phase (octanol/water)
  Partition coefficient P (organic phase/aqueous phase): 0.0049
[1]; Sample 3: 10 mL aqueous phase, 40 mL organic phase (octanol/water)
  Partition coefficient P (organic phase/aqueous phase): 0.0050
[1]; from octanol/water P values
  Hydrophilicity (in words): highly hydrophilic
[2]; Acetate Buffer, 1 Wk, 25° C.
  Appearance: No change
  Purity (% Area): 99.7 % Area
  pH: 4.8
[2]; Acetate Buffer, 1 Wk, 40° C.
  Appearance: No change
  Purity (% Area): 99.7 % Area
  pH: 4.7
[2]; Acetate Buffer, 1 Wk, 60° C.
  Appearance: No change
  Purity (% Area): 99.8 % Area
  pH: 4.7
[2]; Acetate Buffer, 2 Wk, 25° C.
  Appearance: No change
  Purity (% Area): 99.7 % Area
  pH: 4.6
[2]; Acetate Buffer, 2 Wk, 40° C.
  Appearance: No change
  Purity (% Area): 99.7 % Area
  pH: 4.5
[2]; Acetate Buffer, 2 Wk, 60° C.
  Appearance: No change
  Purity (% Area): 99.7 % Area
  pH: 4.5
[2]; Acetate Buffer, 3 Wk, 25° C.
  Appearance: No change
  Purity (% Area): 99.6 % Area
  pH: 4.6
[2]; Acetate Buffer, 3 Wk, 40° C.
  Appearance: No change
  Purity (% Area): 99.7 % Area
  pH: 4.5
[2]; Acetate Buffer, 3 Wk, 60° C.
  Appearance: No change
  Purity (% Area): 99.6 % Area
  pH: 4.5
[2]; Acetate Buffer, Time 0
  Appearance: Clear
  Purity (% Area): 99.8 % Area
  pH: 4.6
[2]; Hydroxide Buffer, 1 Wk, 25° C.
  Appearance: No change
  Purity (% Area): 99.7 % Area
  pH: 1.4
[2]; Hydroxide Buffer, 1 Wk, 40° C.
  Appearance: No change
  Purity (% Area): 99.8 % Area
  pH: 1.4
[2]; Hydroxide Buffer, 1 Wk, 60° C.
  Appearance: No change
  Purity (% Area): 99.6 % Area
  pH: 1.3
[2]; Hydroxide Buffer, 2 Wk, 25° C.
  Appearance: No change
  Purity (% Area): 99.7 % Area
  pH: 1.4
[2]; Hydroxide Buffer, 2 Wk, 40° C.
  Appearance: No change
  Purity (% Area): 99.6 % Area
  pH: 1.4
[2]; Hydroxide Buffer, 2 Wk, 60° C.
  Appearance: No change
  Purity (% Area): 99.6 % Area
  pH: 1.3
[2]; Hydroxide Buffer, 3 Wk, 25° C.
  Appearance: No change
  Purity (% Area): 99.6 % Area
  pH: 1.4
[2]; Hydroxide Buffer, 3 Wk, 40° C.
  Appearance: No change
  Purity (% Area): 99.6 % Area
  pH: 1.4
[2]; Hydroxide Buffer, 3 Wk, 60° C.
  Appearance: No change
  Purity (% Area): 99.6 % Area
  pH: 1.3
[2]; Hydroxide Buffer, Time 0
  Appearance: Clear
  Purity (% Area): 99.7 % Area
  pH: 1.3
[2]; Phosphate Buffer, 1 Wk, 25° C.
  Appearance: No change
  Purity (% Area): 99.4 % Area
  pH: 7.0
[2]; Phosphate Buffer, 1 Wk, 40° C.
  Appearance: No change
  Purity (% Area): 95.9 % Area
  pH: 7.0
[2]; Phosphate Buffer, 1 Wk, 60° C.
  Appearance: No change
  Purity (% Area): 91.3 % Area
  pH: 6.9
[2]; Phosphate Buffer, 2 Wk, 25° C.
  Appearance: No change
  Purity (% Area): 95.4 % Area
  pH: 6.7
[2]; Phosphate Buffer, 2 Wk, 40° C.
  Appearance: No change
  Purity (% Area): 94.4 % Area
  pH: 6.7
[2]; Phosphate Buffer, 2 Wk, 60° C.
  Appearance: No change
  Purity (% Area): 83.0 % Area
  pH: 6.7
[2]; Phosphate Buffer, 3 Wk, 25° C.
  Appearance: No change
  Purity (% Area): 94.9 % Area
  pH: 6.7
[2]; Phosphate Buffer, 3 Wk, 40° C.
  Appearance: No change
  Purity (% Area): 91.4 % Area
  pH: 6.7
[2]; Phosphate Buffer, 3 Wk, 60° C.
  Appearance: No change
  Purity (% Area): 78.8 % Area
  pH: 6.8
[2]; Phosphate Buffer, Time 0
  Appearance: Clear
  Purity (% Area): 99.5 % Area
  pH: 6.7
[2]; pH 1.2 solution
  Stability as a function of pH (in words): most stable
[2]; pH 6.8 buffer
  Stability as a function of pH (in words): least stable
